The values that follow come from patent publication US20080269266A1, “NOVEL COMPOUNDS 747” (ASTRAZENECA AB, priority 2007, published 2008).

Where only a bound is given, the exact number is not on record here.

Data set [1] in a line: LogD (shake flask method). It is filed as physicochemical. The text has this: LogD can be measured using the generic shake flask method as described in Lars-Goran Danielsson, Yu Hui Zhang, Trends in Analytical Chemistry, 1996, 15(4), 188-196, and also by the method described in B. Law and D. Temesi, J. Chromatogr. B 748 (2000), 21-30.
Data set [2] deals with T1, human cytochrome P450 (CYP) 2D6 (Homo sapiens, UniProt P10635).
T1 construct: made in house; host or cells: yeast cell lines (microsomal fractions)
T1 sequence (P10635 whole entry): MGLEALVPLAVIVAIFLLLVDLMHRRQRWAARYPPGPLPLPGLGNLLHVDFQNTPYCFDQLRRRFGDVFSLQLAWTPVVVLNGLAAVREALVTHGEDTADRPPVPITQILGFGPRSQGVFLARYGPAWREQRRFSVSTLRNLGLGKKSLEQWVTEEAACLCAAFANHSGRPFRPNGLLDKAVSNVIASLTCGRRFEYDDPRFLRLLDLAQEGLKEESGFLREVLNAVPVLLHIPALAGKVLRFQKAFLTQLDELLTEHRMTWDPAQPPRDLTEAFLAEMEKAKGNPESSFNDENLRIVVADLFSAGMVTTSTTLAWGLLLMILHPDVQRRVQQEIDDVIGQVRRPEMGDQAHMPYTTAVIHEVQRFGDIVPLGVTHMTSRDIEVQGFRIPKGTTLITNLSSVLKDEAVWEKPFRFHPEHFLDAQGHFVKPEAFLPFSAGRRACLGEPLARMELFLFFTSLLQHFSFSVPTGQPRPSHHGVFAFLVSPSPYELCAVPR
The data set is described as follows: Cytochrome P450 Inhibition Assay 2D6. It is filed as in vitro ADME. To be noted: test compound final concentrations 0.1-10 μM; substrate MAMC. As to the method:
(§1) The inhibitory potential (IC50) of test compounds against 5 human cytochrome P450 (CYP) isoforms (1A2, 2C9, 2C19, 3A4 and 2D6) was assessed using an automated fluorescent end point in vitro assay modified from Crespi (Crespi and Stresser, 2000). Microsomal subcellular fractions prepared from Yeast cell lines expressing each human CYP isoform were used as an enzyme source in this assay. The activity of the 5 major human CYPs was determined from the biotransformation of a number of coumarin substrates to fluorescent metabolites, in the presence of NADPH. […] Stock solutions of each CYP, with its respective substrate, were prepared in phosphate buffer pH7.4 (see Table 1) and 178 μl was added to the well of a black solid, flat bottom, 300 μl 96 well is microtitre plate (Corning Costar). […] After pre-incubating at 37° C. for 5 min the reactions were started with addition of NADPH (20 μl, concentration shown in Table 1). […] The appropriate solvent controls and substrate blanks were included in each experiment to assess control activity and identify any inherent fluorescence due to the test compounds. […] The plates were read on a fluorimeter (Spectrafluor Plus) at the appropriate excitation and emission wavelengths (listed in Table 2) and the percent activity, corrected for control, was plotted against the test compound concentration.

Data set [3] has as its target hERG (human ether-a-go-go-related gene) ion channel (Homo sapiens, UniProt Q12809). The data set is described as follows: hERG. The class given is cell-based. From the text:
Conclusion: Compounds of the present invention (Example 1) while showing good IGF inhibition, also show decreased Cytochrome P450 inhibition when compared to a known IGF inhibitor (Comparative Example A). Low inhibition of Cytochrome P450 is desirable to ameliorate potential drug: drug interactions. hERG hERG can be tested according to the methods described in Journal of Pharmacolgical and Toxicological Methods 2006, 54, 189-199.
(The hERG channel carries a current that helps repolarise heart muscle cells.)

Another data set has as its target T2, human IGF1R (Homo sapiens, UniProt P08069).
T2 construct: expressed in transfected cells; host or cells: R+ cells (R- mouse fibroblasts transfected with human IGF1R)
The data set is described as follows: Inhibition of Insulin-Like Growth Factor-1 Receptor Phosphorylation in R+ cells. The class given is cell-based. To be noted: median; R+ cells stimulated with 30 nM IGF1. As to the method:
This immunofluorescence end point cell assay measures the ability of a test compound to reduce the measured levels of IGF1R phosphorylation after IGF1 stimulation in R cells. R^+ cells are derived by transfection of R^− mouse fibroblast cells with human IGF1R. R^+ cells are routinely cultured in DMEM growth medium (Gibco BRL, 41966) containing 2 mM L-Glutamine (Invitrogen Code no. 25030-024) and 10% (v/v) foetal bovine serum (FBS)) in a 5% CO2 air incubator at 37° C.
To undertake the assay, the R^+ cells are seeded at 5×10^3 cells/well in DMEM plus 1% foetal calf serum, 1% L-glutamine in 96-well black Packard View plates (PerkinElmer 6005182) and incubated at 37° C. (+5% CO2) in a humidified incubator. […]
Following the compound treatment, the R^+ cells are stimulated with a final concentration of 30 nM IGF1 (Gropep IM001) for 20 minutes at 37° C. […] Additionally, in-house antibodies raised against phospho IGF1R were also used at a suitable titre determined for each batch. […]
The Green Fluorescent phospho IGF1R-associated signal in each well was measured using an Acumen Explorer HTS Reader (TTP Labtech Ltd., Cambridge). Phospho IGF1R-associated fluorescence emission can be detected at 530 nm following excitation at 488 nm. […] These fluorescent objects can be quantified and provide a measure of the phospho IGF1R levels in cells. […]

The target in data set [4] is T3, human cytochrome P450 (CYP) 3A4 (Homo sapiens, UniProt P08684).
T3 construct: made in house; host or cells: yeast cell lines (microsomal fractions)
T3 sequence (P08684 whole entry): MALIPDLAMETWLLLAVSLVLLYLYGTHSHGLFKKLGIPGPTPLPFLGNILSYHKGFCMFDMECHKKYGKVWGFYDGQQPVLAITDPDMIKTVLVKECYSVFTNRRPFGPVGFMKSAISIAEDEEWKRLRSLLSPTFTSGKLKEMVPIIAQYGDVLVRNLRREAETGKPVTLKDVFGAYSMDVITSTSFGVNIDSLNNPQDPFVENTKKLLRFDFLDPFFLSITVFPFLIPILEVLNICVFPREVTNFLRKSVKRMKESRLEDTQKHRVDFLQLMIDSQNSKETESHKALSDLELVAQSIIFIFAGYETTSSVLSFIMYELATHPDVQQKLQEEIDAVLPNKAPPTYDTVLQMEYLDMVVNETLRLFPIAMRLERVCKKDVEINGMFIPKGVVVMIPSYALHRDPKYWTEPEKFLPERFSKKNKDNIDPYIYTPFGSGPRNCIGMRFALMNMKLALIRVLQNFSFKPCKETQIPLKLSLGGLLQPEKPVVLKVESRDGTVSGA
The data set is described as follows: Cytochrome P450 Inhibition Assay 3A4. It is filed as in vitro ADME. To be noted: test compound final concentrations 0.1-10 μM; substrate BFC. The method, then: as §1

In general, logD refers to the decadic logarithm of the distribution of all forms, ionised or not, between an organic phase and buffer at a given pH. As usually defined, the IC50 is the concentration that inhibits the measured activity by half. Read a high IC50 as lower potency.

Chain of hERG (human ether-a-go-go-related gene) ion channel (Q12809 whole entry): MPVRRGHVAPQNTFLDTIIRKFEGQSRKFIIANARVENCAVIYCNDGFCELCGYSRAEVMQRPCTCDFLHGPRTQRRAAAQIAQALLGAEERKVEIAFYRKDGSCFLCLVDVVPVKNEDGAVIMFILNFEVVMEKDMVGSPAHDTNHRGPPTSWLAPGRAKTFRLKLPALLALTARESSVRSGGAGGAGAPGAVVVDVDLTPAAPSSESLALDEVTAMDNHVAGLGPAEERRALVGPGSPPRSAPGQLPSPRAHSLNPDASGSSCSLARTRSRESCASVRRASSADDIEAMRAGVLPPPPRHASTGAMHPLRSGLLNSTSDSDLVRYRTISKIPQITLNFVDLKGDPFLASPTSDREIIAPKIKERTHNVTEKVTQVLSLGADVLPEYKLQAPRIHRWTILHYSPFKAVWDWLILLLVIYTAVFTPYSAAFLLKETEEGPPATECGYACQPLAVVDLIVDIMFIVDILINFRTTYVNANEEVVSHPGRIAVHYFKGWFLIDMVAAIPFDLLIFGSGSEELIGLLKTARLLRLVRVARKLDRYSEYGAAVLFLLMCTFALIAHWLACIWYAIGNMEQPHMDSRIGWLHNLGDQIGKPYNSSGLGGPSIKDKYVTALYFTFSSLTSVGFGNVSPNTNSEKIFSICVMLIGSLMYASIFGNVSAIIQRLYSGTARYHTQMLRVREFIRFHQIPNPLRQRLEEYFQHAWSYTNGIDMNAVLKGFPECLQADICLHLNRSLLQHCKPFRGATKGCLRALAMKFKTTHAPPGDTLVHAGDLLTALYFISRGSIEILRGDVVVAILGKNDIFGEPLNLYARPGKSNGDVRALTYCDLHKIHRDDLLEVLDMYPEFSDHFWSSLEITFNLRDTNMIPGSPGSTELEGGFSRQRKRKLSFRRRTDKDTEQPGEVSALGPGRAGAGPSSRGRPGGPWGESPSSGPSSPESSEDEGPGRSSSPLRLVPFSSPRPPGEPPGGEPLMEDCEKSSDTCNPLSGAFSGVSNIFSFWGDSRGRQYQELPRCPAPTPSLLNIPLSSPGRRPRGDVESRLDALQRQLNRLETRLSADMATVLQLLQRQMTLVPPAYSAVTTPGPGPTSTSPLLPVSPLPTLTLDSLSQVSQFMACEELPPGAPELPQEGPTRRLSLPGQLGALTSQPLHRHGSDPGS
T2 sequence (P08069 31-1367): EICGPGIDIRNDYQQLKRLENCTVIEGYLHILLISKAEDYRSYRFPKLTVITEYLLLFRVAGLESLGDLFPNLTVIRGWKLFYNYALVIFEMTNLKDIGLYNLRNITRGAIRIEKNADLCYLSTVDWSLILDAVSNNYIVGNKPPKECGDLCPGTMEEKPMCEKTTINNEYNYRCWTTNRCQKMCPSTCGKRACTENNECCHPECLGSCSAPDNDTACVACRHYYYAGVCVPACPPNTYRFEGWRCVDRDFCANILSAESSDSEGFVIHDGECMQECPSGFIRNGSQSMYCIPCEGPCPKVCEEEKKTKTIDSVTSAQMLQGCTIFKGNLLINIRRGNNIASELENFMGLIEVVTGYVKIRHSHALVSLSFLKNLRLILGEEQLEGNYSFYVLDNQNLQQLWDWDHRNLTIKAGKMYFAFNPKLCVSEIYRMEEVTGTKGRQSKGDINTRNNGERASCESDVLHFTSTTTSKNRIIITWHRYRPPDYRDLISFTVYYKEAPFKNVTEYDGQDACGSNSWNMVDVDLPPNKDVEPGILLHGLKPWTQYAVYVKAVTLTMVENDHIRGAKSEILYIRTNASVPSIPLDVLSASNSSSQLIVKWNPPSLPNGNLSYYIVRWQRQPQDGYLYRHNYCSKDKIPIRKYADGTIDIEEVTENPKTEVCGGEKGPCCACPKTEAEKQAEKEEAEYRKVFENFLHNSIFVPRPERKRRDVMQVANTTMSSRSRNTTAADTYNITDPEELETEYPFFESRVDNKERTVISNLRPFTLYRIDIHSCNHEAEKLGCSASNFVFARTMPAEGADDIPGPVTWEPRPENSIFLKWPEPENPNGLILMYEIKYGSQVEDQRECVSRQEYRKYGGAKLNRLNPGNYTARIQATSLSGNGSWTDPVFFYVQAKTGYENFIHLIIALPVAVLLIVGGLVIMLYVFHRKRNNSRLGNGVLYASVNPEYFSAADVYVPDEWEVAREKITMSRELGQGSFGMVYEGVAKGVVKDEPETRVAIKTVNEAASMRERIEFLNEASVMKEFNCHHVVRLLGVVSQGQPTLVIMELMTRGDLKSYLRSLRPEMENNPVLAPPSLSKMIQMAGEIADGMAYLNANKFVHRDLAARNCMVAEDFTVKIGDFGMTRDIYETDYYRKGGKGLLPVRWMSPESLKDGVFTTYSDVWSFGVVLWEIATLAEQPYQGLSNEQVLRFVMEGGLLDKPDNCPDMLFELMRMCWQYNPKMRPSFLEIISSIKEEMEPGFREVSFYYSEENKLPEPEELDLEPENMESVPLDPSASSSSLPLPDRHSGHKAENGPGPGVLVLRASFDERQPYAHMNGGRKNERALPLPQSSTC

`CCc1cc(Nc2cc(OC)nc(N3CCC[C@H]3c3cc(-c4ncccn4)no3)n2)n[nH]1` [Comparative Example A, (S)-6-Methoxy-2-{2-[3-(pyrimid-2-yl)isoxazol-5-yl]pyrrolidin-1-yl}-4-(5-ethyl-1H-pyrazol-3-ylamino)pyrimidine] yielded a logD in data set [1] of 3.43. The IC50 in data set [2] was over 10 µM; in data set [3], 25.2 µM; on human IGF1R it was 2.68 nM; in data set [4], over 10 µM.

Regarding `COc1cc(Nc2cc(C)n[nH]2)nc(N2CCC[C@H]2c2cc(-c3ncccn3)no2)n1` [Example 1, (S)-6-Methoxy-2-{2-[3-(pyrimid-2-yl)isoxazol-5-yl]pyrrolidin-1-yl}-4-(5-methyl-1H-pyrazol-3-ylamino)pyrimidine], the pH-dependent lipophilicity (logD) in data set [1] is 3.12. The IC50 is over 10 µM in data set [2], over 32 µM in data set [3], 4.29 nM at human IGF1R and over 10 µM in data set [4].
